# Reference: patent US20250276120A1, “METHOD FOR PREVENTING COAGULATION IN PATIENTS WITH IMPLANTED CARDIAC DEVICES” (Cadrenal Therapeutics, Inc., priority 2024, published 2025)
# Like-named read-outs stand apart in the source and are kept apart here.
# What was measured:
# [1] = target: T1, human carboxylesterase 2 (hCE-2) (Homo sapiens, UniProt O00748); settings: cited from earlier work
# T1 sequence (O00748 27-559): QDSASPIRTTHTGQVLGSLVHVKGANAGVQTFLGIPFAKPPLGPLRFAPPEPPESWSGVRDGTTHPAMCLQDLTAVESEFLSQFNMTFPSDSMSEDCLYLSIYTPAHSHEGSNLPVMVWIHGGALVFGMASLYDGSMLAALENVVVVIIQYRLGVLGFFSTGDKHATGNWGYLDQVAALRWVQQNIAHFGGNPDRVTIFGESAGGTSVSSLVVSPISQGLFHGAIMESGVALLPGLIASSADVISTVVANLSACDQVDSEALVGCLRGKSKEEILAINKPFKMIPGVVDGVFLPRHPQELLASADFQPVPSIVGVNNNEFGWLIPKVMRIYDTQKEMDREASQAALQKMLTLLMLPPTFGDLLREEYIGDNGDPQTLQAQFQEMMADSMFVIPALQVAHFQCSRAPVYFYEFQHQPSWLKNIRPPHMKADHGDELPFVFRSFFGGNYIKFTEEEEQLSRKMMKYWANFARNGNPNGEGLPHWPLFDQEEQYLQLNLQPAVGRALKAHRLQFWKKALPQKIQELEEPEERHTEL
# cytochrome P450 system = settings: cited from earlier work
# [2] = Phase 2/3 randomized, double-blind, active-control study tecarfarin versus warfarin, TTR as primary efficacy endpoint; type: in vivo, human
# [3] = time-within-therapeutic range (TTR), supporting clinical data; type: in vivo, human; settings: stable anticoagulation with tecarfarin
# Description: Tecarfarin is not metabolized via the cytochrome P450 system, but rather via an alternate pathway and enzyme (h-CE2) that is abundant throughout the body and essentially insaturable. Tecarfarin has a reliable and stable PK profile and PD response (anticoagulation), a well-understood mechanism of action (similar to other VKAs), with supporting clinical data.
# [4] = pharmacokinetic study with fluconazole (CYP2C9 inhibitor) co-administration in healthy volunteers; settings: fluconazole co-administered
# [5] = human, in vivo
# [6] = aspirin added to warfarin, patients with atrial fibrillation already on warfarin; cited from earlier work
smiles,measurement,setting,value
"CC(OC(=O)c1ccc(Cc2c(O)c3ccccc3oc2=O)cc1)(C(F)(F)F)C(F)(F)F [Tecarfarin, 1,1,1,3,3,3-hexafluoro-2-methyl-2-propanyl 4-[(4-hydroxy-2-oxo-2H-chromen-3-yl)methyl] benzoate]",metabolic pathway (carboxylesterase),[1],hydrolysis via by human carboxylesterase 2 (hCE-2)
same,metabolism by the cytochrome P450 system,cytochrome P450 system,does not proceed via the cytochrome P450 system
same,TTR on tecarfarin compared to warfarin,"[2]; CYP2C9 genotypic variants on CYP2C9 inhibitors, small number of subjects",higher
same,"percent of time-within-therapeutic-range (TTR), tecarfarin versus warfarin","[2]; general population requiring chronic oral anticoagulation, blinded treatment",did not differ significantly
same,"TTR, tecarfarin versus warfarin",[2]; subjects with CYP2C9 wild type genotype,significant improvement
same,change of elimination half-life (t1/2) in CKD,CKD versus healthy subjects,decreased
same,mean plasma concentrations in subjects with CKD versus healthy subjects,CKD versus healthy subjects,not significantly higher
same,time-within-therapeutic range (TTR),[3],> 72%
same,effect of fluconazole co-administration on PK,[4],unaffected
"CC(=O)C[C@@H](c1ccccc1)c1c(O)c2ccccc2oc1=O [(S)-warfarin, reference compound]",mean plasma concentrations in subjects with CKD versus healthy subjects,CKD versus healthy subjects,significantly higher
same,effect of CKD on the effect of CYP2C9 genetic variation on exposure,"CKD, CYP2C9 genotype",significantly increased
same,effect of fluconazole co-administration on drug exposure,[4],significantly prolonged
CC(=O)CC(c1ccccc1)c1c(O)c2ccccc2oc1=O (racemic) [warfarin],effect of CKD on the effect of CYP2C9 genetic variation on exposure,[5],significantly increased
same,mean plasma concentrations in subjects with CKD versus healthy subjects,[5],significantly higher
same,metabolism by the cytochrome P450 system,cytochrome P450 system,"metabolized by multiple different isoenzymes of the cytochrome P450 system (primarily CYP2C9, CYP1A2 and CYP3A4)"
CC(=O)C[C@H](c1ccccc1)c1c(O)c2ccccc2oc1=O [R-warfarin],effect of fluconazole co-administration on drug exposure,[4],significantly prolonged
CC(=O)Oc1ccccc1C(=O)O [aspirin],incremental rate of major bleeding,[6],1.6 % per year
